Literature values, collected in patent US20100310668A1, “PHARMACEUTICAL COMPOSITIONS COMPRISING N-[2-(DIETHYLAMINO)ETHYL]-5-[(5-FLUORO-1,2-DIHYDRO-2-OXO-3H-INDOL-3-YLIDENE)METHYL]-2,4-DIMETHYL-1H-PYRROLE-3-CARBOXAMIDE” (ratiopharm GmbH, priority 2008, published 2010).

Conditions: solid (crystalline) form obtained by known manufacturing processes

solubility in water: poor
SMILES: CCN(CC)CCNC(=O)c1c(C)[nH]c(/C=C2\C(=O)Nc3ccc(F)cc32)c1C [compound I, N-[2-(diethylamino)ethyl]-5-[(5-fluoro-1,2-dihydro-2-oxo-3H-indol-3-ylidene)methyl]-2,4-dimethyl-1H-pyrrole-3-carboxamide]
